Converted amounts (≈) assume the structure as drawn.
Tests used:
[1] = Solubility
[2] = test system: Staphylococcus aureus; assay: Minimum inhibitory concentration; details: read-out: Minimum inhibitory concentration
[3] = test system: Klebsiella pneumoniae; assay: Minimum inhibitory concentration; details: read-out: Minimum inhibitory concentration
[4] = test system: Mycobacterium phlei; assay: Minimum inhibitory concentration; details: Mycolicibacterium phlei, read-out: Minimum inhibitory concentration
Excerpt: (§1) In the Table, N indicates Nutrient agar medium, GN Glycerine nutrient medium and PS Potato-sucrose agar medium.
GN: 4% glycerol nutrient agar

[5] = test system: Escherichia coli; assay: Minimum inhibitory concentration; details: read-out: Minimum inhibitory concentration
[6] = test system: Micrococcus luteus; assay: Minimum inhibitory concentration; details: read-out: Minimum inhibitory concentration
Excerpt: as §1

[7] = Toxicity (LD50), mice, orally; details: mouse, in vivo, po
[8] = test system: Mycobacterium avium; assay: Minimum inhibitory concentration; details: read-out: Minimum inhibitory concentration
Excerpt: as §1
GN: 4% glycerol nutrient agar

[9] = test system: Bacillus circulans; assay: Minimum inhibitory concentration; details: Paenibacillus illinoisensis, read-out: Minimum inhibitory concentration
[10] = test system: Bacillus subtilis; assay: Minimum inhibitory concentration; details: read-out: Minimum inhibitory concentration
[11] = test system: Mycobacterium smegmatis; assay: Minimum inhibitory concentration; details: Mycolicibacterium smegmatis, read-out: Minimum inhibitory concentration
Excerpt: as §1
GN: 4% glycerol nutrient agar

[12] = test system: Alternaria kikuchiana; assay: Minimum inhibitory concentration; assay type: cell-based; details: PS: potato-sucrose agar, Na salt
[13] = test system: Proteus vulgaris; assay: Minimum inhibitory concentration; details: read-out: Minimum inhibitory concentration
[14] = test system: Micrococcus flavus; assay: Minimum inhibitory concentration; details: read-out: Minimum inhibitory concentration
[15] = test system: Staphylococcus epidermidis; assay: Minimum inhibitory concentration; details: read-out: Minimum inhibitory concentration
[16] = test system: Psendomonas aeruginosa; assay: Minimum inhibitory concentration; details: read-out: Minimum inhibitory concentration
[17] = test system: Piricularia oryzae; assay: microbe, parasite or virus in culture; assay type: cell-based; details: read-out: Minimum inhibitory concentration
[18] = Stability; details: Na salt
[19] = test system: Bacillus megaterium; assay: Minimum inhibitory concentration; details: Priestia megaterium, read-out: Minimum inhibitory concentration

## CCC(C(=O)O)C1CCC(C)C(C(C)C(O)C(C)C(=O)C(CC)C2OC3(C=CCC4(CCC(C)(C5CCC(O)(CC)C(C)O5)O4)O3)C(C)CC2C)O1 (stereo not shown) [SY-1 substance]
[1]; alcohols, acetates, chloroform, ether, carbon tetrachloride, benzene and n-hexane, Na salt
  Solubility in organic solvents: soluble
[1]; general statement for isolation by solvent extraction
  Solubility in various organic solvents: soluble in various organic solvents
[1]; water, Na salt
  Solubility in water: insoluble in water
[2]
  MIC: 100 µg/mL (≈ 136 µM)
[3]
  MIC: > 100 µg/mL
[4]
  MIC: > 100 µg/mL
[5]
  MIC: > 100 µg/mL
[6]
  MIC: 100 µg/mL (≈ 136 µM)
[7]
  LD50: 51 mg/kg
[8]
  MIC: > 100 µg/mL
[9]
  MIC: 12.5 µg/mL (≈ 17 µM)
[10]
  MIC: 100 µg/mL (≈ 136 µM)
[11]
  MIC: > 100 µg/mL
[12]
  MIC: > 100 µg/mL
[13]
  MIC: > 100 µg/mL
[14]
  MIC: 100 µg/mL (≈ 136 µM)
[15]
  MIC: 50 µg/mL (≈ 68 µM)
[16]
  MIC: > 100 µg/mL
[17]
  MIC: > 100 µg/mL
[18]; pH 7-9
  Stability: stable in pH 7-9
[18]; pH lower than 6
  Stability: unstable in pH lower than 6
[19]
  MIC: 50 µg/mL (≈ 68 µM)
